The conditions of series [1]: cited from earlier work.
The conditions of series [2]: human; cited from earlier work.
The conditions of series [3]: rat.
The test system of series [4] is proliferative cells (the stem cells and proliferative progenitors). As to the kind of experiment: Translated and calibrated human system toxicology model. Further details: species or system humans. Conditions: fitted to published villus area data after chemotherapy, value (% RSE).
Series [5] relates to proliferative crypt cells, including stem cells and proliferative progenitor cells. It counts as in vivo, Sprague-Dawley rats. Particulars: rat, on proliferative crypt cells, fitted to plasma citrulline.
The conditions of series [6]: rat, fixed to literature value; cited from earlier work.
The conditions of series [7]: human; cited from earlier work. The source holds these as a separate data set.

Several values for one entry are separate records, joined by “and”; a condition that tells them apart may be missing. Equal values may be shown once. Read-outs that look alike come from different tables or passages of the source.

As for `CCc1c2c(nc3ccc(OC(=O)N4CCC(N5CCCCC5)CC4)cc13)-c1cc3c(c(=O)n1C2)COC(=O)[C@]3(O)CC` [Irinotecan], in series [1] (175 mg/m^2 days 1 and 10 every 3 weeks vs 350 mg/m^2 once every 3 weeks), the “occurrence of ≥grade 3 diarrhea in the BI3W schedule compared with Q3W” value was “significantly higher”. Further, the “efficacy in both dosing regimens (Q3W and BI3W)” value in series [1] (350 mg/m^2 Q3W vs 175 mg/m^2 BI3W) is “similar”. Further, in series [2], the “k12, rate constant from central to peripheral 1 of irinotecan” value is 57.8 h⁻¹; the “k21, rate constant from peripheral 1 to central of irinotecan” value is 2.58 h⁻¹; the “k31, rate constant from peripheral 2 to central of irinotecan” value was 0.0812 h⁻¹. Also, in series [3] (i.p. irinotecan, population TK model estimate), the “Vmax, maximum rate of conversion from irinotecan to SN-38” value was 20.6 nmol/h/kg. Besides, the “Dmaxp, coefficient for maximum irinotecan loss during absorption” value in series [3] (i.p., population TK model estimate) is reported as 430 mg/kg. In addition, in series [3] (i.p., % RSE NA), the “ka, absorption rate constant of irinotecan” value was 10 h⁻¹.
In the case of `CCc1c2c(nc3ccc(O)cc13)-c1cc3c(c(=O)n1C2)COC(=O)[C@]3(O)CC` [SN‐38, 7‐ethyl‐10‐hydroxy‐camptothecin], in series [2], the “Vm, central volume of SN-38” value is on record as 200 L; the “kem, elimination rate constant of SN-38” value is 2.52 h⁻¹; the “mk12, rate constant from central to peripheral 1 of SN-38” value is 2.6 h⁻¹; the “mk21, rate constant from peripheral 1 to central of SN-38” value was 0.0584 h⁻¹. The “CLm, clearance of SN-38” value in series [3] (after i.p. irinotecan) stood at 7.73 mL/min/kg. Also, in series [3] (after i.p. irinotecan, % RSE NA), the “Vm, volume of SN-38” value stood at 0.01 L/kg. The “kkill, cytotoxic rate by SN-38” value in series [4] was 11.0 1/day/μM and 11.0 (0.0328) 1/day/μM. For the same compound, the “kkill, cytotoxic rate by SN-38” value in series [5] was determined as 146 M⁻¹ s⁻¹.
Consider `NC(=O)NCCC[C@H](N)C(=O)O` [citrulline], for which the “kout, elimination rate constant of plasma citrulline” value in series [6] is 8.52 day⁻¹; in series [7] it was 18.6 day⁻¹. For the same compound, the plasma citrulline half-life in series [7] is 39 to 68.4 min.

The record behind these values is paper PMC6930863 (CPT: Pharmacometrics & Systems Pharmacology, 2019).
